Residues, ends and D or L forms follow the SMILES beside them. *: point of attachment. Caffeoyl = O=C(/C=C/c1ccc(O)c(O)c1)*; Galloyl = O=C(c1cc(O)c(O)c(O)c1)*
Legend:
[1] = tested on: NIH3T3 cells; assay: ROS staining assay, UV photoaging model; assay type: cell-based, Mouse; conditions: after UV irradiation, 24 h, ROS fluorescent probe
Source text: (§1) Mouse skin fibroblasts (NIH3T3) were purchased from the Shanghai Cell Bank of China Center for Type Culture Collection under the Chinese Academy of Sciences.
(§2) • CA, at a test concentration of 1 ppm; • GA, at a test concentration of 10 ppm; • the reference peptide, at a test concentration of 1 ppm and 10 ppm, respectively; • the peptide (2), at a test concentration of 1 ppm; • the peptide (4), at a test concentration of 10 ppm.
Another indication of aging is an increase in intracellular oxidative stress levels, that is, an increase in ROS, and aging can be slowed down by alleviating oxidative stress. The purpose of this experiment is to test the impact of the peptide derivatives of the present invention on oxidative stress levels using ROS staining assay, thereby evaluating the antioxidant effect.
(§3) The frozen NIH3T3 cells were cultured and passaged at a ratio of 1:2 to about the 5th generation, and the cells in better growth were selected as experiment subjects.
(§4) The cells were inoculated into a 96-well plate at 10,000 cells/well, and when the cells were approximately 80% full, a UV photoaging model was established. In the control group, a PBS solution was added, supplemented with the culture medium to 200 μL, while no UV irradiation was performed; For the UV group and the drug group, a proper amount of PBS was added to wash the culture repeatedly until colorless, followed by adding 50 μL PBS and irradiating under an 80 J/cm^3 UV light. The distance between the light source and the culture bottle was 15 cm. After irradiation, the PBS was removed. In the UV group, a PBS solution and the culture medium were added to 200 μL; in the drug group, the culture medium and the drug diluted in a certain ratio were added to 200 μL. The control group, the UV group, and the drug group were further incubated in a 37° C., 5% CO2 incubator for 24 h.
The culture medium was removed. Each group was stained according to the ROS probe instructions for 20 min and was observed under a fluorescence microscope.

[2] = cited from earlier work
[3] = tested on: NIH3T3 cells; assay: Cell proliferation assay (MTT); assay type: cell-based, Mouse; conditions: 72 h
Source text: as §1
• CA, at a test concentration of 1 ppm, 10 ppm, 100 ppm, and 500 ppm, respectively; • GA, at a test concentration of 1 ppm, 10 ppm, 100 ppm, and 500 ppm, respectively; • the peptide H-Gly-Pro-Gln-Gly-Pro-Gln-NH2 (hereinafter referred to as the reference peptide), at a test concentration of 1 ppm, 10 ppm, 100 ppm, and 500 ppm, respectively; • the peptide (2) CA-Gly-Pro-Gln-Gly-Pro-Gln-NH2, at a test concentration of 1 ppm, 10 ppm, 100 ppm, and 500 ppm, respectively; • the peptide (4) GA-Gly-Pro-Gln-Gly-Pro-Gln-NH2, at a test concentration of 1 ppm, 10 ppm, 100 ppm, and 500 ppm, respectively.
The purpose of this experiment is to evaluate cell viability 72 h after administration and determine the effect of the peptide derivatives of the present invention on cell proliferation by using NIH3T3 cells as the experiment subject.
NIH3T3 cells in good exponential growth phase were taken. A 0.25% trypsin digestion solution was added so that digestion allowed the adherent cells to fall off, counting (1−4)×10^5 cells/mL, which were prepared into a cell suspension.
The cell suspension was inoculated on a 96-well plate with 200 μL/well, and cultured in a constant-temperature CO2 incubator for 24 h.
After changing the medium, the cell suspension was added to drug groups and the control group, respectively, each of which was placed in 20 μL/well and incubated in a 37° C., 5% CO2 incubator for 72 h.
Then 20 μL 5 mg/ml MTT was added to each well and the incubation was continued for 4 h in the 37° C., 5% CO2 incubator. The original solution was removed and 150 μL/well DMSO was added. The plate was placed on a plate shaker for shaking for 5 min. A microplate reader was used to determine the OD value of each well at a wavelength of 570 nm, and calculate the cell viability.
Cell viability=[OD(administration well)−OD(zero adjustment well)]/[OD(control well)−OD(zero adjustment well)]×100%

[4] = tested on: NIH3T3 cells; assay: β-galactosidase staining assay, UV photoaging model; assay type: cell-based, Mouse; conditions: after UV irradiation, 24 h
Source text: as §1
as §2, with “1 ppm, 10 ppm, and 100 ppm, respectively;” for “1 ppm;”, “1 ppm, 10 ppm,” for “1 ppm”, “and 100” for “and 10”, “peptide (4)” for “peptide (4),”, “ppm. 3.” for “ppm.”
The purpose of this experiment is to test the impact of the peptide derivatives of the present invention on cell senescence using a β-galactosidase staining assay to evaluate the anti-photoaging capability.
as §3
as §4, with “h. The culture medium was removed. 100 μL 4% paraformaldehyde was added to each well and fixed at room temperature for 15 min, followed by washing with PBS three times, adding a β-galactosidase staining agent (X-gal 0.01%, potassium ferricyanide 0.16%, ferrocyanide potassium 0.02%) 50 μL/well, sealing with plastic wrap, and staining in a 37° C. incubator in the dark for 12 h. The staining solution was removed. Each group was washed with PBS three times, and photographed under a light microscope. The number of cells in the field of view and the number of stained cells were counted.” for “h.”
UV irradiation can cause cell senescence, and the cytoplasm of senescent cells are stained blue-green by the β-galactosidase agent (shown as the dark part in the black and white images). This experiment evaluates the anti-photoaging capability of the peptide derivatives of the present invention through staining morphology images and senescent cell staining statistics.

[5] = 500 ppm, compared with the control group
[6] = test concentrations 1 ppm to 100 ppm

Compound	ROS level per unit cells ([1]; 10 ppm)	solubility in cold water [2]	effect on NIH3T3 cell viability / toxicity ([3]; 100 ppm, compared with the control group)	effect on NIH3T3 cell viability / toxicity [3, 5]	proportion of senescent cells (β-galactosidase staining) ([4]; 10 ppm)	ROS level per unit cells ([1]; 1 ppm)	solubility in water ([2]; water)	effect on NIH3T3 cell viability ([3]; 10 ppm to 500 ppm, compared with the control group)	proportion of senescent cells (β-galactosidase staining) [4, 6]	toxic effect on NIH3T3 cells ([3]; high concentrations)
O=C(O)c1cc(O)c(O)c(O)c1 [GA, 3,4,5-trihydroxybenzoic acid]	had a certain effect in reducing ROS	insoluble	significant toxicity	significant toxicity	unable to reduce the proportion of senescent cells					
H-Gly-Pro-Gln-Gly-Pro-Gln-NH2 (H-GPQGPQ-NH2) [reference peptide, collagen peptide of EP1406589B1]	had a certain effect in reducing ROS					failed to reduce the ROS level per unit cells	good solubility in water	improved cell viability	unable to reduce the proportion of senescent cells	
O=C(O)C=Cc1ccc(O)c(O)c1 [CA, 3,4-dihydroxycinnamic acid]		slightly soluble		significant toxicity		reduced the ROS level per unit cells to a certain extent			unable to reduce the proportion of senescent cells	
NC(=O)CCC(NC(=O)C1CCCN1C(=O)CNC(=O)C(CCC(N)=O)NC(=O)C1CCCN1C(=O)CNC(=O)c1cc(O)c(O)c(O)c1)C(N)=O (stereo not drawn) [peptide (4), GA-Gly-Pro-Gln-Gly-Pro-Gln-NH2] (Galloyl-GPQGPQ-NH2; configuration not given here)	more significantly reduced the expression of ROS per unit cells				reduced the proportion of senescent cells					did not have a toxic effect
NC(=O)CCC(NC(=O)C1CCCN1C(=O)CNC(=O)C(CCC(N)=O)NC(=O)C1CCCN1C(=O)CNC(=O)/C=C/c1ccc(O)c(O)c1)C(N)=O (stereo not drawn) [peptide (2), CA-Gly-Pro-Gln-Gly-Pro-Gln-NH2] (Caffeoyl-GPQGPQ-NH2; configuration not given here)				significantly improve cell viability		significantly reduced the expression of ROS per unit cells			significantly reduced the proportion of senescent cells	

From US20240279275A1, “HEXAPEPTIDE DERIVATIVE AND COSMETIC COMPOSITION OR PHARMACEUTICAL COMPOSITION AND USE THEREOF” (SHENZHEN WINKEY TECHNOLOGY CO., LTD, priority 2021, published 2024)
